{"source": "patent US4486434A", "about": "“Histamine H1 -antagonists” (Smith Kline & French Laboratories Limited, priority 1981, dated 1984)", "test": "rat whole body radiography", "type": "in vivo", "from_the_text": "This has been shown by rat whole body radiography.", "data": [{"smiles": "Cc1ccc(Cc2cnc(NCCCCc3ncc(Br)cc3C)[nH]c2=O)cn1", "note": "[Example 1, 2-[4-(5-bromo-3-methylpyrid-2-yl)-butylamino]-5-(6-methylpyrid-3-yl-methyl)-4-pyrimidone]", "values": [{"measurement": "entry into the central nervous system", "value": "does not enter the central nervous system"}]}]}
